{
  "source": "paper PMC3265452",
  "about": "(PLoS Neglected Tropical Diseases, 2012)",
  "note": "Counter-ions that a name gives are not always drawn.",
  "data": [
    {"target": "AaDOP2 (Aedes aegypti, UniProt H6D5H2)", "sequence (H6D5H2 1-476)": "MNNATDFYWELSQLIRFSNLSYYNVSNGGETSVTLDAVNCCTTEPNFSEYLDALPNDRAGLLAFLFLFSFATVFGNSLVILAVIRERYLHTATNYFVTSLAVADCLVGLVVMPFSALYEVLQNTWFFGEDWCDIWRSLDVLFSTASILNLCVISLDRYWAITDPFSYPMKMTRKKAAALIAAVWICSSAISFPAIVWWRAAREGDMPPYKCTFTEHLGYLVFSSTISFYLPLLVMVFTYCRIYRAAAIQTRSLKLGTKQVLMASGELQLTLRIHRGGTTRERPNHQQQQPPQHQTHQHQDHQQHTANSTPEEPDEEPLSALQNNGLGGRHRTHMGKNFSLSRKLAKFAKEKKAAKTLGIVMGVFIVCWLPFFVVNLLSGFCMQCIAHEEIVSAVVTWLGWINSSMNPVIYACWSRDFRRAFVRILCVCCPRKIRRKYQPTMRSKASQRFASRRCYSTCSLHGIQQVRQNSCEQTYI", "assay": "AaDOP2 antagonist screen of the LOPAC1280 library (HEK-CRELuc-Aadop2 cells, luminescence)", "format": "cell-based", "details": "not given", "values": [
      {"compound": "NC(=Nc1ccccc1)NC(=O)c1nc(Cl)c(N)nc1N", "note": "[Compound 1020, Phenamil methanesulfonate]", "Compound effect (percent receptor signaling in presence of test compound, relative lux units relative to the SCH23390 control)": 46},
      {"compound": "COc1cccc(-c2cc(=O)c3ccccc3o2)c1N", "note": "[Compound 1023, PD 98,059]", "Compound effect (percent receptor signaling in presence of test compound, relative lux units relative to the SCH23390 control)": 94},
      {"compound": "Cc1cccc(C(=O)NCN2CCN(c3ccccc3C#N)CC2)c1.O=C(O)/C=C\\C(=O)O", "note": "[Compound 1025, PD 168,077 maleate]", "Compound effect (percent receptor signaling in presence of test compound, relative lux units relative to the SCH23390 control)": 91},
      {"compound": "CN(C)S(=O)(=O)c1ccc2c(c1)/C(=C/c1cc3c([nH]1)CCCC3)C(=O)N2", "note": "[Compound 1026, SU 6656]", "Compound effect (percent receptor signaling in presence of test compound, relative lux units relative to the SCH23390 control)": 65},
      {"compound": "O=C(O)c1cccnc1C(=O)O", "note": "[Compound 1027, Quinolinic acid]", "Compound effect (percent receptor signaling in presence of test compound, relative lux units relative to the SCH23390 control)": 83},
      {"compound": "O=c1c(O)c(-c2ccc(O)c(O)c2)oc2cc(O)cc(O)c12", "note": "[Compound 1028, Quercetin dihydrate]", "Compound effect (percent receptor signaling in presence of test compound, relative lux units relative to the SCH23390 control)": 34},
      {"compound": "C=C[C@H]1C[N@@]2CC[C@H]1C[C@@H]2[C@@H](O)c1ccnc2ccc(OC)cc12", "note": "[Compound 1029, Quinidine sulfate]", "Compound effect (percent receptor signaling in presence of test compound, relative lux units relative to the SCH23390 control)": 69},
      {"compound": "O=C(O)/C=C\\C(=O)O.O=C(O)/C=C\\C(=O)O.c1ccc2nc(N3CCNCC3)ccc2c1", "note": "[Compound 1030, Quipazine dimaleate]", "Compound effect (percent receptor signaling in presence of test compound, relative lux units relative to the SCH23390 control)": 71},
      {"compound": "C=C[C@H]1C[N@@]2CC[C@H]1C[C@H]2[C@H](O)c1ccnc2ccc(OC)cc12", "note": "[Compound 1031, Quinine sulfate]", "Compound effect (percent receptor signaling in presence of test compound, relative lux units relative to the SCH23390 control)": 79},
      {"compound": "N[C@@H](Cn1oc(=O)[nH]c1=O)C(=O)O", "note": "[Compound 1032, (+)-Quisqualic acid]", "Compound effect (percent receptor signaling in presence of test compound, relative lux units relative to the SCH23390 control)": 80},
      {"compound": "CCN(CC)CCCC(C)Nc1c2ccc(Cl)cc2nc2ccc(OC)cc12", "note": "(centres unmarked) [Compound 1033, Quinacrine dihydrochloride]", "Compound effect (percent receptor signaling in presence of test compound, relative lux units relative to the SCH23390 control)": 94},
      {"compound": "C[C@@H]1C(=O)NC2=Nc3cccc(Cl)c3CN21", "note": "[Compound 1034, Quazinone]", "Compound effect (percent receptor signaling in presence of test compound, relative lux units relative to the SCH23390 control)": 108},
      {"compound": "C[C@]12CCC(=O)C=C1CC[C@@H]1[C@@H]2CC[C@@]2(C)[C@H]1CC[C@]2(O)C(=O)CO", "note": "[Compound 1040, Cortexolone]", "Compound effect (percent receptor signaling in presence of test compound, relative lux units relative to the SCH23390 control)": 99},
      {"compound": "CC(NCCc1ccc(O)cc1)C(O)c1ccc(O)cc1", "note": "(centres unmarked) [Compound 1041, Ritodrine hydrochloride]", "Compound effect (percent receptor signaling in presence of test compound, relative lux units relative to the SCH23390 control)": 119},
      {"compound": "O=C(c1ccc(OCCN2CCCCC2)cc1)c1c(-c2ccc(O)cc2)sc2cc(O)ccc12", "note": "[Compound 1042, Raloxifene hydrochloride]", "Compound effect (percent receptor signaling in presence of test compound, relative lux units relative to the SCH23390 control)": 103},
      {"compound": "CC1=C(/C=C/C(C)=C/C=C/C(C)=C/C(=O)O)C(C)(C)CCC1", "note": "[Compound 1043, Retinoic acid]", "Compound effect (percent receptor signaling in presence of test compound, relative lux units relative to the SCH23390 control)": 106},
      {"compound": "N.N.N.N.N.N.N.N.N.N.N.N.N.N.[Cl-].[Cl-].[Cl-].[Cl-].[Cl-].[Cl-].[O-2].[O-2].[Ru+3].[Ru+3].[Ru+4]", "note": "[Compound 1044, Ruthenium red]", "Compound effect (percent receptor signaling in presence of test compound, relative lux units relative to the SCH23390 control)": 61},
      {"compound": "CC1=C(/C=C/C(C)=C/C=C/C(C)=C\\C(=O)O)C(C)(C)CCC1", "note": "[Compound 1045, 13-cis-retinoic acid]", "Compound effect (percent receptor signaling in presence of test compound, relative lux units relative to the SCH23390 control)": 72},
      {"compound": "O=c1c2ccccc2nc2n1CCc1c-2[nH]c2ccccc12", "note": "[Compound 1046, Rutaecarpine]", "Compound effect (percent receptor signaling in presence of test compound, relative lux units relative to the SCH23390 control)": 78},
      {"compound": "CCCN(CCC)CCc1cccc2c1CC(=O)N2", "note": "[Compound 1047, Ropinirole hydrochloride]", "Compound effect (percent receptor signaling in presence of test compound, relative lux units relative to the SCH23390 control)": 103},
      {"compound": "CCCCCC(O)c1cccc(OCc2ccc3ccccc3n2)c1", "note": "(centres unmarked) [Compound 1049, REV 5901]", "Compound effect (percent receptor signaling in presence of test compound, relative lux units relative to the SCH23390 control)": 103},
      {"compound": "CC(=O)c1c(O)c(C)c(O)c(Cc2c(O)c3c(c(C(=O)/C=C/c4ccccc4)c2O)OC(C)(C)C=C3)c1O", "note": "[Compound 1050, Rottlerin]", "Compound effect (percent receptor signaling in presence of test compound, relative lux units relative to the SCH23390 control)": 35},
      {"compound": "COc1ccccc1OCC(O)CN1CCN(CC(=O)Nc2c(C)cccc2C)CC1", "note": "(centres unmarked) [Compound 1051, Ranolazine dihydrochloride]", "Compound effect (percent receptor signaling in presence of test compound, relative lux units relative to the SCH23390 control)": 100},
      {"compound": "COc1ccc(C2CNC(=O)C2)cc1OC1CCCC1", "note": "(centres unmarked) [Compound 1052, Rolipram]", "Compound effect (percent receptor signaling in presence of test compound, relative lux units relative to the SCH23390 control)": 118},
      {"compound": "CC[C@H](CO)Nc1nc(NCc2ccccc2)c2ncn(C(C)C)c2n1", "note": "[Compound 1055, Roscovitine]", "Compound effect (percent receptor signaling in presence of test compound, relative lux units relative to the SCH23390 control)": 28},
      {"compound": "C=C(C)[C@H]1Cc2c(ccc3c2O[C@@H]2COc4cc(OC)c(OC)cc4[C@@H]2C3=O)O1", "note": "[Compound 1056, Rotenone]", "Compound effect (percent receptor signaling in presence of test compound, relative lux units relative to the SCH23390 control)": 41},
      {"compound": "NC(=O)c1ccc(OCC(O)CN2CC=C(c3ccc(F)cc3)CC2)cc1", "note": "(centres unmarked) [Compound 1057, Ro 8-4304]", "Compound effect (percent receptor signaling in presence of test compound, relative lux units relative to the SCH23390 control)": 115},
      {"compound": "NC(=O)c1ncn([C@@H]2O[C@H](CO)[C@@H](O)[C@H]2O)n1", "note": "[Compound 1059, Ribavirin]", "Compound effect (percent receptor signaling in presence of test compound, relative lux units relative to the SCH23390 control)": 119},
      {"compound": "CNC(=C[N+](=O)[O-])NCCSCc1ccc(CN(C)C)o1", "note": "[Compound 1060, Ranitidine hydrochloride]", "Compound effect (percent receptor signaling in presence of test compound, relative lux units relative to the SCH23390 control)": 106},
      {"compound": "Cc1nc2sccn2c(=O)c1CCN1CCC(=C(c2ccc(F)cc2)c2ccc(F)cc2)CC1", "note": "[Compound 1061, Ritanserin]", "Compound effect (percent receptor signaling in presence of test compound, relative lux units relative to the SCH23390 control)": 18},
      {"compound": "COC(=O)[C@H]1[C@H]2C[C@H]3c4[nH]c5ccccc5c4CCN3C[C@H]2CC[C@@H]1O", "note": "[Compound 1062, Rauwolscine hydrochloride]", "Compound effect (percent receptor signaling in presence of test compound, relative lux units relative to the SCH23390 control)": 87},
      {"compound": "O=C(c1cc(O)c(O)c([N+](=O)[O-])c1)c1ccccc1F", "note": "[Compound 1065, Ro 41-0960]", "Compound effect (percent receptor signaling in presence of test compound, relative lux units relative to the SCH23390 control)": 88},
      {"compound": "Nc1c(S(=O)(=O)O)cc(Nc2ccc(Nc3nc(Cl)nc(Nc4cccc(S(=O)(=O)O)c4)n3)c(S(=O)(=O)O)c2)c2c1C(=O)c1ccccc1C2=O", "note": "[Compound 1066, Reactive Blue 2]", "Compound effect (percent receptor signaling in presence of test compound, relative lux units relative to the SCH23390 control)": 93},
      {"compound": "CC(C)COC(=O)OCN1C(=O)CN(CCN2CC(=O)N(COC(=O)OCC(C)C)C(=O)C2)CC1=O", "note": "[Compound 1070, Sobuzoxane]", "Compound effect (percent receptor signaling in presence of test compound, relative lux units relative to the SCH23390 control)": 96},
      {"compound": "C1COC(NC(C2CC2)C2CC2)=N1", "note": "[Compound 1071, Rilmenidine hemifumarate]", "Compound effect (percent receptor signaling in presence of test compound, relative lux units relative to the SCH23390 control)": 114},
      {"compound": "COc1cccc(NC(=O)/C=C/c2ccc(Cl)cc2)c1", "note": "[Compound 1075, SB-366791]", "Compound effect (percent receptor signaling in presence of test compound, relative lux units relative to the SCH23390 control)": 105}
    ]},
    {"target": "AaDOP2 (Aedes aegypti, UniProt H6D5H2)", "assay": "AaDOP2 antagonist screen of the LOPAC1280 library (HEK-CRELuc-Aadop2 cells, luminescence)", "format": "cell-based", "details": "10 µM compound, 300 nM dopamine, 2 hr; hit = compound effect <20", "units": {"Compound effect (percent receptor signaling in presence of test compound, relative lux units relative to the SCH23390 control)": "%"}, "values": [
      {"compound": "CCCN1CCO[C@@H]2c3cc(O)ccc3OC[C@H]21.Cl", "note": "[Compound 1019, S(+)-PD 128,907 hydrochloride]", "Compound effect (percent receptor signaling in presence of test compound, relative lux units relative to the SCH23390 control)": 89},
      {"compound": "O=C([O-])CCC(NC(=O)c1ccccc1C(=O)[O-])C(=O)[O-].[Na+].[Na+].[Na+]", "note": "[Compound 1022, Phthalamoyl-L-glutamic acid trisodium]", "Compound effect (percent receptor signaling in presence of test compound, relative lux units relative to the SCH23390 control)": 97},
      {"compound": "CN1CCN(c2ccc3ccccc3n2)CC1.O=C(O)/C=C\\C(=O)O.O=C(O)/C=C\\C(=O)O", "note": "[Compound 1036, Quipazine, N-methyl-, dimaleate]", "Compound effect (percent receptor signaling in presence of test compound, relative lux units relative to the SCH23390 control)": 74},
      {"compound": "O=C(O)/C=C\\C(=O)O.O=[N+]([O-])c1ccc2nc(N3CCNCC3)ccc2c1", "note": "[Compound 1037, Quipazine, 6-nitro-, maleate]", "Compound effect (percent receptor signaling in presence of test compound, relative lux units relative to the SCH23390 control)": 92},
      {"compound": "CCCN1CCC[C@@H]2Cc3nc(N)ncc3C[C@H]21", "note": "[Compound 1038, Quinelorane dihydrochloride]", "Compound effect (percent receptor signaling in presence of test compound, relative lux units relative to the SCH23390 control)": 99},
      {"compound": "C[C@@H](CN1CCC(Cc2ccccc2)CC1)[C@@H](O)c1ccc(O)cc1.Cl", "note": "[Compound 1053, Ro 25-6981 hydrochloride]", "Compound effect (percent receptor signaling in presence of test compound, relative lux units relative to the SCH23390 control)": 70},
      {"compound": "CC(C)C[C@H](NP(=O)([O-])O[C@H]1O[C@H](C)[C@@H](O)[C@H](O)[C@@H]1O)C(=O)N[C@@H](Cc1c[nH]c2ccccc12)C(=O)[O-].[Na+].[Na+]", "note": "[Compound 1054, Phosphoramidon disodium]", "Compound effect (percent receptor signaling in presence of test compound, relative lux units relative to the SCH23390 control)": 104},
      {"compound": "COC1(C2=NCCN2)COc2ccccc2O1.Cl", "note": "(centres unmarked) [Compound 1058, RX 821002 hydrochloride]", "Compound effect (percent receptor signaling in presence of test compound, relative lux units relative to the SCH23390 control)": 121},
      {"compound": "COc1ccc(CCNC[C@H](O)c2ccc(O)cc2)cc1OC", "note": "[Compound 1072, R(-)-Denopamine]", "Compound effect (percent receptor signaling in presence of test compound, relative lux units relative to the SCH23390 control)": 107},
      {"compound": "CNc1cc(NS(=O)(=O)c2ccc(N)cc2)nc(NC)n1.Cl.Cl", "note": "[Compound 1073, Ro 04-6790 dihydrochloride]", "Compound effect (percent receptor signaling in presence of test compound, relative lux units relative to the SCH23390 control)": 135}
    ]},
    {"target": "AaDOP2 (Aedes aegypti, UniProt H6D5H2)", "assay": "AaDOP2 antagonist screen of the LOPAC1280 library (HEK-CRELuc-Aadop2 cells, luminescence)", "format": "cell-based", "details": "read-out: % of the SCH23390 effect (percent inhibition of receptor response relative to the SCH23390 control)", "units": {"inhibition at 10 µM": "%"}, "values": [
      {"compound": "Cc1nc2sccn2c(=O)c1CCN1CCC(=C(c2ccc(F)cc2)c2ccc(F)cc2)CC1", "note": "[Compound 1061, Ritanserin]", "inhibition at 10 µM": 83}
    ]}
  ]
}
